The text below walks through data of patent publication US10308659B2, “Pyridine derivatives” (Hoffmann-La Roche Inc., priority 2013, dated 2019).

Where two headings read alike, the source gives them in different places.

In one assay the target is human CB1 receptors (Homo sapiens (Human), UniProt P21554). Put plainly: cAMP assay, CHO cells expressing human CB1 receptors. It is filed as cell-based. On the procedure:
(§1) CHO cells expressing human CB1 or CB2 receptors are seeded 17-24 hours prior to the experiment 50.000 cells per well in a black 96 well plate with flat clear bottom (Corning Costar #3904) in DMEM (Invitrogen No. 31331), 1×HT supplement, with 10% fetal calf serum and incubated at 5% CO2 and 37° C. in a humidified incubator. The growth medium was exchanged with Krebs Ringer Bicarbonate buffer with 1 mM IBMX and incubated at 30° C. for 30 min. Compounds were added to a final assay volume of 100 μl and incubated for 30 min at 30° C. […] The time-resolved energy transfer is measured by a TRF reader (Evotec Technologies GmbH), equipped with a ND:YAG laser as excitation source. The plate is measured twice with the excitation at 355 nm and at the emission with a delay of 100 ns and a gate of 100 ns, total exposure time 10 s at 730 (bandwidth30 nm) or 645 nm (bandwidth 75 nm), respectively. The FRET signal is calculated as follows: FRET=T730-Alexa730-P(T645-B645) with P=Ru730-B730/Ru645-B645, where T730 is the test well measured at 730 nM, T645 is the test well measured at 645 nm, B730 and B645 are the buffer controls at 730 nm and 645 nm, respectively. cAMP content is determined from the function of a standard curve spanning from 10 μM to 0.13 nM cAMP.
(§2) EC50 values were determined using Activity Base analysis (ID Business Solution, Limited).
For orientation: Changes in cAMP serve as a functional read-out for many G protein-coupled receptors.

The next assay addresses human CB2 receptors (Homo sapiens (Human), UniProt P34972). Put plainly: cAMP assay, CHO cells expressing human CB2 receptors. It is filed as cell-based. On the procedure:
as §1, §2

Setting [1] is: functional cAMP assay, CHO cells expressing human CB1, read-out: EC50 CB1 human.
The mark [2] stands for this setting: functional cAMP assay, CHO cells expressing human CB2, read-out: EC50 CB2 human.

Chain of human CB2 receptors (P34972 whole entry): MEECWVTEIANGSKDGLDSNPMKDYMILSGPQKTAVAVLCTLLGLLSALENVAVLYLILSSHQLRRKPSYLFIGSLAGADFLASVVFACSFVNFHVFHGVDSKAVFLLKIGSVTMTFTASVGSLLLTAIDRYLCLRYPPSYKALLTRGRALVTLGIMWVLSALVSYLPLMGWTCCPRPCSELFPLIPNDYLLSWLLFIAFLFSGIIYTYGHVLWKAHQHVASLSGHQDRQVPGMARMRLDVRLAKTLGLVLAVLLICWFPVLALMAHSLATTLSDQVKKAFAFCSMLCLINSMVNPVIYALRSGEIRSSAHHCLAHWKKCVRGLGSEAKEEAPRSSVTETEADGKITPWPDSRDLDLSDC
Chain of human CB1 receptors (P21554 whole entry): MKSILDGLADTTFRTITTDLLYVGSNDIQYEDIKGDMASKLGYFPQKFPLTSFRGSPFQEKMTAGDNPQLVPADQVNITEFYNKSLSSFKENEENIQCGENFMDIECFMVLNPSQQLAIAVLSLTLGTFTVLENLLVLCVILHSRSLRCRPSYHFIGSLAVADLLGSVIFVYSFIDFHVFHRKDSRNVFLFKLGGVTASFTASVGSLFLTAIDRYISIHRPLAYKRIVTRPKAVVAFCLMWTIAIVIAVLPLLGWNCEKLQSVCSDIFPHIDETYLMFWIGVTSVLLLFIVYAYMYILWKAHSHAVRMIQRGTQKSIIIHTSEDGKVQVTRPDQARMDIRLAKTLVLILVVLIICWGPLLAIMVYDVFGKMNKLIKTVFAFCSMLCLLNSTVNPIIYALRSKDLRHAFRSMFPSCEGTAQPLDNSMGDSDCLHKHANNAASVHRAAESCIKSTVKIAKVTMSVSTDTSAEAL

In general, EC50 refers to the concentration at which the effect is half-maximal. For the compound `CC(C)c1noc(-c2cc(OCC(F)(F)F)c(C3CC3)cn2)n1` [Example 42, 5-[5-cyclopropyl-4-(2,2,2-trifluoroethoxy)pyridin-2-yl]-3-propan-2-yl-1,2,4-oxadiazole], the EC50 at human CB1 receptors (setting [1]) is over 10000 nM; on human CB2 receptors (setting [2]) it was 2.3 nM.

In the case of `CC(C)(C)c1nc(-c2cc(OCC(F)F)c(C3CC3)cn2)no1` [Example 115, 5-tert-butyl-3-[5-cyclopropyl-4-(2,2-difluoroethoxy)pyridin-2-yl]-1,2,4-oxadiazole], the values for the concentration for a half-maximal effect (EC50) on human CB1 receptors (setting [1]) and on human CB2 receptors (setting [2]) were over 10000 nM and 2 nM, respectively.

As to `CC(C)(C)c1nc(-c2cc(Oc3ccc(F)cc3)c(C3CC3)cn2)no1` [Example 61, 5-tert-butyl-3-[5-cyclopropyl-4-(4-fluorophenoxy)pyridin-2-yl]-1,2,4-oxadiazole], the results for the 50% effective concentration (EC50) at human CB1 receptors (setting [1]) and at human CB2 receptors (setting [2]) were over 10000 nM and 6.2 nM, respectively.

Regarding `CC(C)(C)c1nc(-c2cc(N3CCC(F)(F)C3)c(C3CC3)cn2)no1` [Example 77, 5-tert-butyl-3-[5-cyclopropyl-4-(3,3-difluoropyrrolidin-1-yl)pyridin-2-yl]-1,2,4-oxadiazole], the concentration giving a half-maximal response (EC50) on human CB1 receptors (setting [1]) was over 10000 nM; on human CB2 receptors (setting [2]) it was 2.1 nM.

`CC(C)(C)c1nc(-c2cc(OCC3CCO3)c(C3CC3)cn2)no1` (stereo not drawn) [Example 58, 5-tert-butyl-3-[5-cyclopropyl-4-(oxetan-2-ylmethoxy)pyridin-2-yl]-1,2,4-oxadiazole]: the results for the EC50 at human CB1 receptors (setting [1]) and on human CB2 receptors (setting [2]) were over 10000 nM and 15.6 nM, respectively.

`CCN1CCC(Oc2cc(-c3noc(C(C)(C)C)n3)ncc2C2CC2)C1` (stereo not drawn) [Example 92, 5-tert-butyl-3-[5-cyclopropyl-4-(1-ethylpyrrolidin-3-yl)oxypyridin-2-yl]-1,2,4-oxadiazole]: the results for the concentration giving a half-maximal response (EC50) on human CB1 receptors (setting [1]) and at human CB2 receptors (setting [2]) were 768 nM and 75.1 nM, respectively.

For the compound `CN1CCC[C@H]1COc1cc(-c2noc(C(C)(C)C)n2)ncc1C1CC1` [Example 57, 5-tert-butyl-3-[5-cyclopropyl-4-[[(2S)-1-methylpyrrolidin-2-yl]methoxy]pyridin-2-yl]-1,2,4-oxadiazole], the EC50 at human CB1 receptors (setting [1]) was over 10000 nM; at human CB2 receptors (setting [2]) it was 13.4 nM.

`C[C@H](Oc1cc(-c2nc(C(C)(C)C)no2)ncc1C1CC1)C(F)(F)F` [Example 52, 3-tert-butyl-5-[5-cyclopropyl-4-[(2S)-1,1,1-trifluoropropan-2-yl]oxypyridin-2-yl]-1,2,4-oxadiazole]: the EC50 at human CB1 receptors (setting [1]) was over 10000 nM; at human CB2 receptors (setting [2]), 13.1 nM.

`CC1(c2nc(-c3cc(OCC(F)(F)F)c(C4CC4)cn3)no2)COC1` [Example 38, 3-[5-cyclopropyl-4-(2,2,2-trifluoroethoxy)pyridin-2-yl]-5-(3-methyloxetan-3-yl)-1,2,4-oxadiazole]: the EC50 on human CB1 receptors (setting [1]) was over 10000 nM; on human CB2 receptors (setting [2]), 128 nM.

On to `CC(C)(C)c1noc(-c2cc(OCC3CC3)c(C3CC3)cn2)n1` [Example 6, 3-tert-butyl-5-[5-cyclopropyl-4-(cyclopropylmethoxy)pyridin-2-yl]-1,2,4-oxadiazole], for which the EC50 on human CB1 receptors (setting [1]) was 9.2 nM; at human CB2 receptors (setting [2]) it was 1 nM.

On to `C[C@H](Oc1cc(-c2noc(C(C)(C)C)n2)ncc1C1CC1)C(F)(F)F` [Example 48, 5-tert-butyl-3-[5-cyclopropyl-4-[(2S)-1,1,1-trifluoropropan-2-yl]oxypyridin-2-yl]-1,2,4-oxadiazole], for which the values for the EC50 on human CB1 receptors (setting [1]) and on human CB2 receptors (setting [2]) were over 10000 nM and 19 nM, respectively.

`CN1CCCCC1COc1cc(-c2noc(C(C)(C)C)n2)ncc1C1CC1` (stereo not drawn) [Example 97, 5-tert-butyl-3-[5-cyclopropyl-4-[(1-methylpiperidin-2-yl)methoxy]pyridin-2-yl]-1,2,4-oxadiazole]: the EC50 was over 10000 nM on human CB1 receptors (setting [1]) and 19 nM at human CB2 receptors (setting [2]).

Regarding `C[C@@H](Oc1cc(-c2noc(C(C)(C)C)n2)ncc1C1CC1)C(F)(F)F` [Example 49, 5-tert-butyl-3-[5-cyclopropyl-4-[(2R)-1,1,1-trifluoropropan-2-yl]oxypyridin-2-yl]-1,2,4-oxadiazole], the EC50 at human CB1 receptors (setting [1]) is over 10000 nM; on human CB2 receptors (setting [2]) it was 51.5 nM.

Take `CC(C)(C)c1nc(-c2cc(N3CCC(O)C3)c(C3CC3)cn2)no1` (stereo not drawn) [Example 73, 1-[2-(5-tert-butyl-1,2,4-oxadiazol-3-yl)-5-cyclopropylpyridin-4-yl]pyrrolidin-3-ol]: the EC50 is over 10000 nM at human CB1 receptors (setting [1]) and 57.2 nM on human CB2 receptors (setting [2]).

With `CC(C)(C)c1noc(-c2cc(OCC(F)F)c(C3CC3)cn2)n1` [Example 123, 3-tert-butyl-5-(5-cyclopropyl-4-(2,2-difluoroethoxy)pyridin-2-yl)-1,2,4-oxadiazole], the figures for the EC50 at human CB1 receptors (setting [1]) and on human CB2 receptors (setting [2]) were over 10000 nM and 2 nM, respectively.

Take `CC(C)(C)c1nc(-c2cc(OC3CCOC3)c(C3CC3)cn2)no1` (stereo not drawn) [Example 62, 5-tert-butyl-3-[5-cyclopropyl-4-(oxolan-3-yloxy)pyridin-2-yl]-1,2,4-oxadiazole]: the EC50 is over 10000 nM at human CB1 receptors (setting [1]) and 17.8 nM at human CB2 receptors (setting [2]).

Consider `CC(C)(C)c1nc(-c2cc(OCCN3CCOCC3)c(C3CC3)cn2)no1` [Example 103, 4-[2-[2-(5-tert-butyl-1,2,4-oxadiazol-3-yl)-5-cyclopropylpyridin-4-yl]oxyethyl]morpholine], for which the EC50 on human CB1 receptors (setting [1]) was over 10000 nM; on human CB2 receptors (setting [2]), 28.9 nM.

As for `CC(C)(C)c1nc(-c2cc(OC3CCOCC3)c(C3(F)COC3)cn2)no1` [Example 109, 5-tert-butyl-3-[5-(3-fluorooxetan-3-yl)-4-(oxan-4-yloxy)pyridin-2-yl]-1,2,4-oxadiazole], the figures for the EC50 at human CB1 receptors (setting [1]) and at human CB2 receptors (setting [2]) were over 10000 nM and 162 nM, respectively.

Take `CC(C)(C)c1nc(-c2cc(Oc3ccc(S(C)(=O)=O)cc3)c(C3CC3)cn2)no1` [Example 75, 5-tert-butyl-3-[5-cyclopropyl-4-(4-methylsulfonylphenoxy)pyridin-2-yl]-1,2,4-oxadiazole]: the EC50 at human CB1 receptors (setting [1]) was over 10000 nM; at human CB2 receptors (setting [2]), 288 nM.

For the compound `CCC(COC)Oc1cc(-c2noc(C(C)(C)C)n2)ncc1C1CC1` (stereo not drawn) [Example 84, 5-tert-butyl-3-[5-cyclopropyl-4-(1-methoxybutan-2-yloxy)pyridin-2-yl]-1,2,4-oxadiazole], the EC50 was over 10000 nM on human CB1 receptors (setting [1]) and 50.1 nM on human CB2 receptors (setting [2]).

`CC(C)(C)c1nc(-c2cc(OC3CCCOC3)c(C3CC3)cn2)no1` (stereo not drawn) [Example 88, 5-tert-butyl-3-[5-cyclopropyl-4-(oxan-3-yloxy)pyridin-2-yl]-1,2,4-oxadiazole]: the EC50 is over 10000 nM on human CB1 receptors (setting [1]) and 52.9 nM at human CB2 receptors (setting [2]).

For the compound `CC(C)(C)c1nc(-c2cc(OC3CCOCC3)c(C3CC3)cn2)no1` [Example 63, 5-tert-butyl-3-[5-cyclopropyl-4-(oxan-4-yloxy)pyridin-2-yl]-1,2,4-oxadiazole], the EC50 at human CB1 receptors (setting [1]) was over 10000 nM; on human CB2 receptors (setting [2]) it was 4.3 nM.

On to `Cc1noc(-c2cc(OCC(F)(F)F)c(N3CC(F)(F)C3)cn2)n1` [Example 16, 5-[5-(3,3-difluoroazetidin-1-yl)-4-(2,2,2-trifluoroethoxy)pyridin-2-yl]-3-methyl-1,2,4-oxadiazole], for which the values for the EC50 at human CB1 receptors (setting [1]) and on human CB2 receptors (setting [2]) were over 10000 nM and 343 nM, respectively.

In the case of `CC1(C)CN=C(c2cc(OCC(F)(F)F)c(C3CC3)cn2)O1` [Example 41, 2-[5-cyclopropyl-4-(2,2,2-trifluoroethoxy)pyridin-2-yl]-5,5-dimethyl-4H-1,3-oxazole], the EC50 at human CB1 receptors (setting [1]) was over 10000 nM; at human CB2 receptors (setting [2]) it was 53.9 nM.

With `CC(C)(C)c1nc(-c2cc(Oc3ccc(F)cc3)c(C3(F)COC3)cn2)no1` [Example 110, 5-tert-butyl-3-[5-(3-fluorooxetan-3-yl)-4-(4-fluorophenoxy)pyridin-2-yl]-1,2,4-oxadiazole], the EC50 at human CB1 receptors (setting [1]) was over 10000 nM; at human CB2 receptors (setting [2]), 103 nM.

In the case of `CC(C)(C)c1nc(-c2cc(OCCN3CCCC3)c(C3CC3)cn2)no1` [Example 94, 5-tert-butyl-3-[5-cyclopropyl-4-(2-pyrrolidin-1-ylethoxy)pyridin-2-yl]-1,2,4-oxadiazole], the EC50 is over 10000 nM at human CB1 receptors (setting [1]) and 60.2 nM at human CB2 receptors (setting [2]).

On to `CC(C)(C)c1nc(-c2cc(OC3COC3)c(C3CC3)cn2)no1` [Example 54, 5-tert-butyl-3-[5-cyclopropyl-4-(oxetan-3-yloxy)pyridin-2-yl]-1,2,4-oxadiazole], for which the EC50 on human CB1 receptors (setting [1]) was over 10000 nM; on human CB2 receptors (setting [2]) it was 33.1 nM.

As for `c1c(-c2noc(C3CC3)n2)ncc(C2CC2)c1OCC1CC1` [Example 9, 5-cyclopropyl-3-[5-cyclopropyl-4-(cyclopropylmethoxy)pyridin-2-yl]-1,2,4-oxadiazole], the EC50 on human CB1 receptors is over 10000 nM; at human CB2 receptors, 15.8 nM.

For the compound `c1c(-c2noc(C3CNC3)n2)ncc(C2CC2)c1OCC1CC1` [Example 29, 5-(azetidin-3-yl)-3-[5-cyclopropyl-4-(cyclopropylmethoxy)pyridin-2-yl]-1,2,4-oxadiazole], the EC50 at human CB1 receptors (setting [1]) is over 10000 nM; at human CB2 receptors (setting [2]), 797 nM.

Consider `CC(CN1CCCCC1)Oc1cc(-c2noc(C(C)(C)C)n2)ncc1C1CC1` (stereo not drawn) [Example 96, 5-tert-butyl-3-[5-cyclopropyl-4-(1-piperidin-1-ylpropan-2-yloxy)pyridin-2-yl]-1,2,4-oxadiazole], for which the EC50 turned out to be 1010 nM on human CB1 receptors (setting [1]) and 75.9 nM at human CB2 receptors (setting [2]).
